Consider 59 molecules from patent US11339144B2 (Navitor Pharmaceuticals, Inc., priority 2017, dated 2022).

Structures are written as SMILES. pIC50: −log10 of the molar value.

The target of one assay is HA-GST-Rheb (GTP-γ-S loaded) activating mTORC1 (Homo sapiens (Human), UniProt Q15382). The assay is described as follows: Rheb-dependent in vitro kinase assay (Rheb-IVK; LanthaScreen or Western readout). On the set-up: IVK IC50 (μM): scale not given here. It counts as biochemical. The note with it: Rheb-dependent in vitro kinase assay.
Sequence of HA-GST-Rheb (GTP-γ-S loaded) activating mTORC1 (Q15382 1-181): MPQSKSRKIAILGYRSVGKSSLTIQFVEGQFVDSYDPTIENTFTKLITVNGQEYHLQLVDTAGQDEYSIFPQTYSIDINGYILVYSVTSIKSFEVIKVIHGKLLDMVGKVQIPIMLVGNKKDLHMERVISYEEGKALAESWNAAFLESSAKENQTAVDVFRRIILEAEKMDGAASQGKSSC
For `Cc1cc(Oc2ccccc2)cc2c1cc(CO)n2Cc1nc[nH]n1` [I-234], the “IVK IC50 (μM)” value is on record as “E/F”.

The same assay, now with this note: Rheb-dependent in vitro kinase assay; read-out: IVK IC50.
One may read the pIC50 as the negative decadic logarithm of the IC50, by convention in mol/L. `O=C(c1ccc(Cl)cc1)c1cccc2[nH]ccc12` [I-178]: the pIC50 was less than 4.00. Still for that read-out and setting: the result for `CCn1cnc2cc(Cl)c(OCc3ccccc3)cc21` [I-435] reads less than 4.00.

In the case of `Nc1ncccc1COc1c(Cl)c(Cl)cc2[nH]c(CO)nc12` [I-436], the pIC50 is less than 4.00. As to `OCc1nc2c(OC[C@H]3CCCC[C@@H]3O)c(Cl)c(Cl)cc2n1Cc1nn[nH]n1` (racemic) [I-391, (+,−)-trans-2-((1-((2H-tetrazol-5-yl)methyl)-5,6-dichloro-2-(hydroxymethyl)-1H-benzo[d]imidazol-4-yloxy)methyl)cyclohexanol], the pIC50 was 4.00 to 5.00. The same measure, in the same setting: the result for `OCc1nc2c(Br)cc(Oc3ccccc3)cc2n1Cc1nc[nH]n1` [I-406] reads less than 4.00; that for `[O-][S+](c1ccccc1Cl)c1cccc2[nH]ccc12` (centres unmarked) [I-231], less than 4.00; that for `Cc1cc(Oc2ccccc2)cc2c1cc(CO)n2C` [I-245], less than 4.00.

Take `Cn1ccc2c(NC3CCNCC3)cccc21` [I-297, 1-methyl-N-(piperidin-4-yl)-1H-indol-4-amine]: the pIC50 is 3.10 to 3.52.

Take `Clc1ccc(Sc2cccc3[nH]ccc23)cc1Cl` [I-211]: the pIC50 is less than 4.00. Same read-out and setting: in the case of `Clc1ccc(Sc2cccc3cc[nH]c23)cc1` [I-217] it was less than 4.00; in that of `O=S(=O)(c1cccc(Cl)c1)c1cccc2[nH]ccc12` [I-240], less than 4.00. The same measure, in the same setting: in the case of `OCc1nc2c(OCC3CCCCO3)c(Cl)c(Cl)cc2[nH]1` (centres unmarked) [I-398] it was less than 4.00; in that of `[O-][S+](c1cccc(Cl)c1)c1cccc2[nH]ccc12` (centres unmarked) [I-233], less than 4.00. With `COc1ccc(Sc2cc(Cl)cc3[nH]c(C(=O)O)cc23)cc1OC` [I-138, 6-chloro-4-(3,4-dimethoxyphenylthio)-1H-indole-2-carboxylic acid], the pIC50 was 3.52 to 4.00.

`COc1cccc(Sc2cccc3[nH]ccc23)c1` [I-195]: the pIC50 is less than 4.00. On the same count and under the same terms, the result for `CCOCc1nc2c(Cl)cc(OCc3ccccc3)cc2n1CC` [I-415] reads less than 4.00; that for `CCn1c(CO)nc2cc(OCc3ccccc3)c(Cl)cc21` [I-487], less than 4.00; that for `OCc1nc2c(OC[C@H]3CCCC[C@@H]3O)c(Cl)c(Cl)cc2[nH]1` (racemic) [I-383, (+,−)-trans-2-((5,6-dichloro-2-(hydroxymethyl)-1H-benzo[d]imidazol-4-yloxy)methyl)cyclohexanol], 4.00 to 5.00. The same measure, in the same setting: the result for `OCc1nc2cc(OCCc3ccccc3)c(Cl)cc2[nH]1` [I-483, (6-chloro-5-phenethoxy-1H-benzo[d]imidazol-2-yl)methanol] reads 3.10 to 3.52; that for `c1cnc(Nc2cccc3[nH]ccc23)nc1` [I-189], less than 4.00; that for `Nc1cccc(COc2c(Cl)c(Cl)cc3nc(CO)[nH]c23)n1` [I-464], less than 4.00. Still for that read-out and setting: the result for `OCc1cc2ccc(Oc3ccccc3)cc2n1Cc1nc[nH]n1` [I-214] reads less than 4.00. Regarding `OCc1nc2c(Oc3ccccc3)cccc2[nH]1` [I-470], the negative-log IC50 (pIC50) was less than 4.00. The same measure, in the same setting: the result for `CCn1c(CO)nc2cc(Cl)c(Oc3ccccc3)cc21` [I-456] reads less than 4.00; that for `O=C1CCC(COc2c(Cl)c(Cl)cc3[nH]c(CO)nc23)N1` (centres unmarked) [I-419], less than 4.00; that for `NC(=O)c1ccc(Cn2c(-c3ncco3)nc3cc(Cl)c(Cl)cc32)cc1` [I-451], less than 4.00. On the same count and under the same terms, the result for `Cn1cc(-c2cc(Oc3ccccc3)cc3[nH]c(CO)cc23)cn1` [I-227] reads less than 4.00. The same measure, in the same setting: the result for `Cn1c(CO)cc2c(OCc3ccccc3)cc(Cl)cc21` [I-292] reads less than 4.00; that for `OCc1cc2c(Br)cc(OCc3ccccc3)cc2n1Cc1ccccc1` [I-224], less than 4.00; that for `OCc1nc2c(OCC3CCCO3)c(Cl)c(Cl)cc2[nH]1` (centres unmarked) [I-400, (5,6-dichloro-4-((tetrahydrofuran-2-yl)methoxy)-1H-benzo[d]imidazol-2-yl) methanol bis (2,2,2-trifluoroacetate)], 3.52 to 4.00.

`CCn1c(CO)nc2cc(Cl)c(OCc3ccccc3F)cc21` [I-454]: the pIC50 is less than 4.00. For the molecule `CCn1c(CO)nc2c(Cl)cc(OCc3ccccc3)cc21` [I-413], the pIC50 was less than 4.00. Still for that read-out and setting: in the case of `OCc1nc2c(OC[C@H]3CCCC[C@@H]3O)c(Cl)c(Cl)cc2n1Cc1cc(Cl)ccc1Cl` [I-393] it was less than 4.00.

With `OCc1nc2cc(Cl)c(OCc3ccccc3)cc2n1Cc1ccccc1` [I-467], the pIC50 is less than 4.00. Take `N#Cc1cccc(Cn2c(-c3ncco3)nc3cc(Cl)c(Cl)cc32)c1` [I-463]: the pIC50 was less than 4.00.

Take `CCn1c(CO)nc2cc(Oc3ccccc3)c(Cl)cc21` [I-455]: the pIC50 was less than 4.00. As to `OCc1nc2c(Oc3ccccc3)c(Cl)ccc2[nH]1` [I-418, (5-chloro-4-phenoxy-1H-benzo[d]imidazol-2-yl)methanol], the pIC50 was 3.52 to 4.00.

`OCc1nc2cc(Cl)c(Cl)c(OCC3CCCCN3)c2[nH]1` (centres unmarked) [I-462]: the pIC50 was less than 4.00.

As to `OCc1ccc(Sc2cccc3[nH]ccc23)cc1` [I-183], the pIC50 is less than 4.00. On the same count and under the same terms, the result for `Cn1c(CO)nc2cc(Cl)c(OCc3ccccc3)cc21` [I-426] reads less than 4.00; that for `Clc1cc2nc(-c3ncco3)n(Cc3cccc(-c4nn[nH]n4)c3)c2cc1Cl` [I-438], less than 4.00.

As to `OCc1nc2cc(OCc3ccc(F)cc3)c(Cl)cc2[nH]1` [I-482, (6-chloro-5-(4-fluorobenzyloxy)-1H-benzo[d]imidazol-2-yl)methanol], the pIC50 is 3.52 to 4.00. Still for that read-out and setting: in the case of `OCc1nc2c(OCc3ccnc(Cl)n3)c(Cl)c(Cl)cc2[nH]1` [I-424] it was less than 4.00; in that of `OCc1nc2ccc(Oc3ccccc3)cc2n1Cc1nc[nH]n1` [I-397], less than 4.00.

`OCc1cc2c(Br)cc(Oc3ccccc3)cc2n1Cc1ccc(-c2nn[nH]n2)cc1` [I-221]: the pIC50 is less than 4.00. Same read-out and setting: in the case of `Clc1ccc2[nH]c(-c3ncco3)nc2c1Oc1ccccc1` [I-427, 2-(5-chloro-4-phenoxy-1H-benzo[d]imidazol-2-yl)oxazole] it was 3.52 to 4.00; in that of `CCn1c(CO)nc2ccc(OCc3ccccc3)cc21` [I-417], less than 4.00. On the same count and under the same terms, the result for `O=C(O)c1cc(Sc2ccc(Cl)cc2)c2cc[nH]c2c1` [I-193] reads less than 4.00. Same read-out and setting: in the case of `OCc1cc2c(Oc3ccccc3F)cccc2[nH]1` [I-277, (4-(2-fluorophenoxy)-1H-indol-2-yl)methanol] it was 3.10 to 3.52; in that of `O=C(O)c1ccc(Cn2c(-c3ncco3)nc3cc(Cl)c(Cl)cc32)cc1` [I-452], less than 4.00; in that of `Clc1ccccc1Oc1cccc2[nH]ccc12` [I-285], less than 4.00. For the molecule `COC(=O)c1cc(Sc2ccc(Cl)cc2)c2cc[nH]c2c1` [I-197], the pIC50 was less than 4.00. As to `N#CCc1nc2cc(OCc3ccccc3)c(Cl)cc2[nH]1` [I-473], the pIC50 was less than 4.00. Take `OCc1cc2c(C3CCNCC3)cc(Oc3ccccc3)cc2[nH]1` [I-199]: the pIC50 is less than 4.00.

`Clc1ccc2c(c1)nc(-c1ncco1)n2Cc1ccc(-c2nn[nH]n2)cc1` [I-410]: the negative-log IC50 (pIC50) is less than 4.00. Still for that read-out and setting: in the case of `OCc1cc2c(Oc3ccccc3)cccc2[nH]1` [I-287] it was less than 4.00; in that of `[O-][S+](c1ccccc1)c1cc(Br)c2cc(CO)[nH]c2c1` (centres unmarked) [I-229], less than 4.00; in that of `Cn1ccc2c(Oc3ccccc3Cl)cccc21` [I-269], less than 4.00.
